“And” between values parts separate entries of the source, which are not always exact repeats. Identical values can stand only once. Toxic doses and inconclusive results are not listed.
Test system: P388 leukemia ip, CD2F1 mice, survival T/C
Assay: NCI In Vivo Anticancer Drug Screen. Data for tumor model P388 Leukemia (intraperitoneal) in CD2F1 (CDF1) mice
Conditions: endpoint: median survival time, higher = longer survival
In short: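 Mice carrying the transplanted tumor received test compound or vehicle. Survival was recorded in each group, and the value is the treated-group measurement divided by that of the vehicle-treated control group.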

[1] = dose: 50.0 mg/kg/injection, schedule: Q01DX001 (ip), vehicle: Klucel (hydroxypropylcellulose) (HPC)
[2] = dose: 100.0 mg/kg/injection, schedule: Q01DX001 (ip), vehicle: Klucel (hydroxypropylcellulose) (HPC)
[3] = dose: 200.0 mg/kg/injection, schedule: Q01DX001 (ip), vehicle: Klucel (hydroxypropylcellulose) (HPC)
[4] = dose: 100.0 mg/kg/injection, schedule: Q04DX003 (ip), vehicle: Klucel (hydroxypropylcellulose) (HPC)
[5] = dose: 200.0 mg/kg/injection, schedule: Q04DX003 (ip), vehicle: Klucel (hydroxypropylcellulose) (HPC)
[6] = dose: 400.0 mg/kg/injection, schedule: Q04DX003 (ip), vehicle: Klucel (hydroxypropylcellulose) (HPC)
[7] = dose: 400.0 mg/kg/injection, schedule: Q01DX001 (ip), vehicle: Klucel (hydroxypropylcellulose) (HPC)
[8] = dose: 25.0 mg/kg/injection, schedule: Q04DX002 (ip), vehicle: saline with Tween-80
[9] = dose: 50.0 mg/kg/injection, schedule: Q04DX002 (ip), vehicle: saline with Tween-80
[10] = dose: 50.0 mg/kg/injection, schedule: Q01DX005 (ip), vehicle: Klucel (hydroxypropylcellulose) (HPC)
[11] = dose: 100.0 mg/kg/injection, schedule: Q01DX005 (ip), vehicle: Klucel (hydroxypropylcellulose) (HPC)
[12] = dose: 200.0 mg/kg/injection, schedule: Q01DX005 (ip), vehicle: Klucel (hydroxypropylcellulose) (HPC)
[13] = dose: 50.0 mg/kg/injection, schedule: Q01DX009 (ip), vehicle: Klucel (hydroxypropylcellulose) (HPC)
[14] = dose: 100.0 mg/kg/injection, schedule: Q01DX009 (ip), vehicle: Klucel (hydroxypropylcellulose) (HPC)
[15] = dose: 200.0 mg/kg/injection, schedule: Q01DX009 (ip), vehicle: Klucel (hydroxypropylcellulose) (HPC)
[16] = dose: 100.0 mg/kg/injection, schedule: Q04DX003 (ip), vehicle: saline with Tween-80
[17] = dose: 200.0 mg/kg/injection, schedule: Q04DX003 (ip), vehicle: saline with Tween-80

## O=C(c1ccc(Cl)cc1)n1c(Cl)c(/C=N\Nc2cccc([N+](=O)[O-])c2)c2ccccc21
[1]
  T/C: 86 % of control
[2]
  T/C: 86 % of control
[3]
  T/C: 87 % of control

## O=P1(c2ccccc2)CCCCN1Cc1ccccc1 (stereo unspecified)
dose: 100.0 mg/kg/injection, schedule: Q04DX003 (ip), vehicle: saline
  T/C: 108 % of control
dose: 200.0 mg/kg/injection, schedule: Q04DX003 (ip), vehicle: saline
  T/C: 94 % of control
dose: 400.0 mg/kg/injection, schedule: Q04DX003 (ip), vehicle: saline
  T/C: 116 % of control

## CN1c2ccccc2Sc2cc(N3c4ccccc4Sc4ccc(C(F)(F)F)cc43)c(C(F)(F)F)cc21
[4]
  T/C: 101 % of control
[5]
  T/C: 100 % of control
[6]
  T/C: 98 % of control

## CCn1c(Cl)c(/C=N/NC(N)=S)c2cccc(/C=N\NC(N)=S)c21
[2]
  T/C: 97 % of control
[3]
  T/C: 87 % of control
[7]
  T/C: 97 % of control

## Oc1ccc2ccccc2c1N=Nc1nn[nH]n1
dose: 50.0 mg/kg/injection, schedule: Q01DX005 (ip), vehicle: saline with Tween-80
  T/C: 99 % of control
dose: 100.0 mg/kg/injection, schedule: Q01DX005 (ip), vehicle: saline with Tween-80
  T/C: 106 % of control

## CCCCCCC(O)CCCCCC
dose: 100.0 mg/kg/injection, schedule: Q04DX003 (ip), vehicle: other
  T/C: 104 % of control
dose: 200.0 mg/kg/injection, schedule: Q04DX003 (ip), vehicle: other
  T/C: 109 % of control
dose: 400.0 mg/kg/injection, schedule: Q04DX003 (ip), vehicle: other
  T/C: 100 % of control

## C/C(=N\N=C(N)N)c1ccc2c(c1)Cc1ccccc1-2
[8]
  T/C: 101 % of control
[9]
  T/C: 103 % of control

## OCC1OC(n2ncc3c(Cl)ccnc32)C(O)C1O (stereo unspecified)
dose: 4.0 mg/kg/injection, schedule: Q01DX005 (ip), vehicle: saline with Tween-80
  T/C: 100 % of control
dose: 8.0 mg/kg/injection, schedule: Q01DX005 (ip), vehicle: saline with Tween-80
  T/C: 103 % of control
dose: 16.0 mg/kg/injection, schedule: Q01DX005 (ip), vehicle: saline with Tween-80
  T/C: 97 % of control
dose: 32.0 mg/kg/injection, schedule: Q01DX005 (ip), vehicle: saline with Tween-80
  T/C: 109 % of control
dose: 64.0 mg/kg/injection, schedule: Q01DX005 (ip), vehicle: saline with Tween-80
  T/C: 100 % of control

## CSc1ccc2c(c1)C(N1CCN(C)CC1)Cc1ccccc1S2 (stereo unspecified)
dose: 6.25 mg/kg/injection, schedule: Q01DX009 (ip), vehicle: saline with Tween-80
  T/C: 106 % of control and 107 % of control and 114 % of control
dose: 12.5 mg/kg/injection, schedule: Q01DX009 (ip), vehicle: saline with Tween-80
  T/C: 103 % of control and 107 % of control and 95 % of control
dose: 12.5 mg/kg/injection, schedule: Q01DX009 (ip), vehicle: saline
  T/C: 117 % of control
dose: 25.0 mg/kg/injection, schedule: Q01DX009 (ip), vehicle: saline with Tween-80
  T/C: 86 % of control and 95 % of control
dose: 25.0 mg/kg/injection, schedule: Q01DX009 (ip), vehicle: saline
  T/C: 118 % of control

## S=P1(Oc2ccccc2)Nc2cccc3cccc(c23)N1
dose: 25.0 mg/kg/injection, schedule: Q01DX005 (ip), vehicle: Klucel (hydroxypropylcellulose) (HPC)
  T/C: 98 % of control
[10]
  T/C: 106 % of control
[11]
  T/C: 102 % of control
[12]
  T/C: 103 % of control

## CCOC(=O)/C=C1/Nc2ccc([N+](=O)[O-])cc2NC1=O (tested in a mixture with another compound)
dose: 50.0 mg/kg/injection, schedule: Q01DX009 (ip), vehicle: distilled water + Tween-80 + alcohol
  T/C: 86 % of control
dose: 100.0 mg/kg/injection, schedule: Q01DX009 (ip), vehicle: distilled water + Tween-80 + alcohol
  T/C: 94 % of control
dose: 200.0 mg/kg/injection, schedule: Q01DX009 (ip), vehicle: distilled water + Tween-80 + alcohol
  T/C: 103 % of control

## O=c1[nH]cc(Br)c2ccccc12
[8]
  T/C: 92 % of control
[9]
  T/C: 93 % of control
dose: 100.0 mg/kg/injection, schedule: Q04DX002 (ip), vehicle: saline with Tween-80
  T/C: 96 % of control

## O=C1NCCCN1C(=O)Nc1ccc(Cl)c(Cl)c1
[13]
  T/C: 101 % of control
[14]
  T/C: 91 % of control
[15]
  T/C: 95 % of control

## O=Nc1ccc(NO)cc1
dose: 25.0 mg/kg/injection, schedule: Q04DX003 (ip), vehicle: Klucel (hydroxypropylcellulose) (HPC)
  T/C: 110 % of control
dose: 50.0 mg/kg/injection, schedule: Q04DX003 (ip), vehicle: Klucel (hydroxypropylcellulose) (HPC)
  T/C: 108 % of control
[4]
  T/C: 103 % of control
[5]
  T/C: 110 % of control
[6]
  T/C: 88 % of control

## CC(=O)C1=C(c2ccccc2)NC(=O)NC1c1ccco1 (stereo unspecified)
[16]
  T/C: 95 % of control
[17]
  T/C: 95 % of control
dose: 400.0 mg/kg/injection, schedule: Q04DX003 (ip), vehicle: saline with Tween-80
  T/C: 90 % of control

## C[CH2][Sn][CH2]C.O=C(CC(=O)c1ccccc1)c1ccccc1.O=C(CC(=O)c1ccccc1)c1ccccc1
dose: 12.5 mg/kg/injection, schedule: Q01DX001 (ip), vehicle: Klucel (hydroxypropylcellulose) (HPC)
  T/C: 115 % of control
dose: 25.0 mg/kg/injection, schedule: Q01DX001 (ip), vehicle: Klucel (hydroxypropylcellulose) (HPC)
  T/C: 111 % of control
[1]
  T/C: 115 % of control
[2]
  T/C: 110 % of control
[7]
  T/C: 115 % of control

## COC(=O)CCSC(=O)NS(=O)(=O)c1ccc(C)cc1
[10]
  T/C: 104 % of control
[11]
  T/C: 102 % of control
[12]
  T/C: 104 % of control

## COC1=C(OC)C(=O)C(SCCCCCCC2CCCCC2)=C(C)C1=O
dose: 60.0 mg/kg/injection, schedule: Q01DX005 (ip), vehicle: saline + Tween-80 + alcohol
  T/C: 110 % of control
dose: 120.0 mg/kg/injection, schedule: Q01DX005 (ip), vehicle: saline + Tween-80 + alcohol
  T/C: 115 % of control

## CC(=O)CC(=O)OC(C)(C)C#CC(C)(C)OC(=O)CC(C)=O
dose: 50.0 mg/kg/injection, schedule: Q01DX009 (ip), vehicle: saline
  T/C: 102 % of control
dose: 100.0 mg/kg/injection, schedule: Q01DX009 (ip), vehicle: saline
  T/C: 103 % of control
dose: 200.0 mg/kg/injection, schedule: Q01DX009 (ip), vehicle: saline
  T/C: 100 % of control

## C=CC(=O)NCNC(=O)CCBr
dose: 25.0 mg/kg/injection, schedule: Q04DX003 (ip), vehicle: saline with Tween-80
  T/C: 109 % of control
dose: 50.0 mg/kg/injection, schedule: Q01DX009 (ip), vehicle: saline with Tween-80
  T/C: 186 % of control
[16]
  T/C: 150 % of control
[17]
  T/C: 159 % of control and 190 % of control
dose: 300.0 mg/kg/injection, schedule: Q04DX003 (ip), vehicle: saline with Tween-80
  T/C: 172 % of control

## CC(=O)OC1CN(c2ccc(Br)cc2)CC(OC(C)=O)CN(c2ccc(Br)cc2)C1 (stereo unspecified)
[13]
  T/C: 99 % of control
[14]
  T/C: 100 % of control
[15]
  T/C: 97 % of control

## C[C@]12CC[C@H](OC(=O)COc3ccc(N(CCCl)CCCl)cc3)C[C@@H]1CC[C@@H]1[C@@H]2CC[C@]2(C)NC(=O)CC[C@@H]12
dose: 2.0 mg/kg/injection, schedule: Q01DX009 (ip), vehicle: saline with Tween-80
  T/C: 120 % of control
dose: 8.0 mg/kg/injection, schedule: Q01DX009 (ip), vehicle: saline with Tween-80
  T/C: 151 % of control and 157 % of control and 192 % of control
dose: 16.0 mg/kg/injection, schedule: Q01DX009 (ip), vehicle: saline with Tween-80
  T/C: 180 % of control and 184 % of control and 192 % of control
dose: 32.0 mg/kg/injection, schedule: Q01DX009 (ip), vehicle: saline with Tween-80
  T/C: 107 % of control and 180 % of control and 217 % of control

## CN1C(c2ccccc2)C2CCCC(C1c1ccccc1)C21NC(=O)NC1=O (stereo unspecified)
dose: 100.0 mg/kg/injection, schedule: Q01DX001 (ip), vehicle: saline with Tween-80
  T/C: 97 % of control
dose: 200.0 mg/kg/injection, schedule: Q01DX001 (ip), vehicle: saline with Tween-80
  T/C: 94 % of control
dose: 400.0 mg/kg/injection, schedule: Q01DX001 (ip), vehicle: saline with Tween-80
  T/C: 94 % of control

## CC1(C)N=C(N)N=C(N)N1c1cccc(CSc2ccccc2)c1
dose: 7.5 mg/kg/injection, schedule: Q01DX005 (ip), vehicle: Klucel (hydroxypropylcellulose) (HPC)
  T/C: 98 % of control
dose: 15.0 mg/kg/injection, schedule: Q01DX005 (ip), vehicle: Klucel (hydroxypropylcellulose) (HPC)
  T/C: 103 % of control
dose: 30.0 mg/kg/injection, schedule: Q01DX005 (ip), vehicle: Klucel (hydroxypropylcellulose) (HPC)
  T/C: 103 % of control

— PubChem BioAssay AID330 (DTP/NCI, 2004)
